# In patent US7417053B2, “Pyrazolo[1,5-a]pyridine derivatives or pharmaceutically acceptable salts thereof” (Teijin Pharma Limited, priority 2005, dated 2008):
# Where a name gives a salt, the structure may show the parent alone.
# Biological target: recombinant human MAPKAP-K2 (Homo sapiens, UniProt P49137)
# Assay: Inhibitory activity against MAPKAP-K2 enzyme (33P-ATP peptide phosphorylation)
# Type: biochemical
# Conditions: recombinant human MAPKAP-K2, ATP 20 μmol/L solution, room temperature 30 min; read-out: Activity Strength (MAPKAP-K2 IC50 value)
# Experimental: General Measurement Method for Determining the Inhibitory Activity Against MAPKAP-K2 enzyme
# (Preparation of Solutions of Compounds)
# Each compound was dissolved in DMSO to prepare a solution with a concentration of 20 mmol/L and this solution was stored at −20° C. This stock solution was diluted with DMSO successively to prepare solutions with 200-fold concentrations of a necessary range. These solutions were further diluted with water at a ratio of 1:20 to prepare solutions with 10-fold concentrations of a necessary range. Each of these solutions (5 μL) was used for each reaction in 50 μL-scale. Through the dilution series of all compounds, the final DMSO concentration was kept at 0.5%. Conventional tests for the compounds were carried out at a final concentration range from 100 μmol/L to 0.03 μmol/L. but in some cases, tests were carried out at lower concentrations, depending on activity.
# (Measurements of MAPKAP-K2 Enzyme Activities)
# To a 5% DMSO aqueous solution (5 μL) of a test compound, a solution (25 μL) containing a peptide substrate [peptide substrate 60 μmol/L, ATP 20 μmol/L, Tris buffer 60 mmol/L (pH 7.5), EGTA 0.2 mmol/L, β-mercaptoethanol 0.2%, magnesium acetate 20 mmol/L, [γ-33P]ATP 0.1 μCi (specific radioactivity ca. 110 TBq/mmol)] was added. The reaction was initiated by adding a solution (20 μL) containing MAPKAP-K2 enzyme [recombinant human MAPKAP-K2 10 mU, Tris buffer […] (pH 7.5), EGTA 0.1 mmol/L, β-mercaptoethanol 0.1%, BSA 0.1%]. After the reaction was carried out at room temperature for 30 min, 200 mmol/L phosphoric acid (50 μL) was added to quench the reaction, and 90 μL of the reaction mixture was adsorbed on a multiscreen PH plate (Millipore). The plate was washed with 100 mmol/L phosphoric acid. After the plate was dried, 30 μL of MicroScint-O (Perkin-Elmer) was added, and the count per minute was measured on a scintillation counter to determine the inhibitory activity. The peptide substrate was Lys-Lys-Leu-Asn-Arg-Thr-Leu-Ser-Val-Ala.
# • % Reference=(X−B)/(Tot−B)×100 • % Inhibition=100−% Reference • X represents count per minute of the well with a test compound applied. • B represents count per minute of the well without the enzyme. • Tot represents count per minute of the well with only DMSO solvent and no test compound applied. (Calculation of MAPKAP-K2 Inhibitory Activity) • IC50 value represents a concentration of compound at which 50% inhibition is observed.
# recombinant human MAPKAP-K2, sequence (P49137 whole entry): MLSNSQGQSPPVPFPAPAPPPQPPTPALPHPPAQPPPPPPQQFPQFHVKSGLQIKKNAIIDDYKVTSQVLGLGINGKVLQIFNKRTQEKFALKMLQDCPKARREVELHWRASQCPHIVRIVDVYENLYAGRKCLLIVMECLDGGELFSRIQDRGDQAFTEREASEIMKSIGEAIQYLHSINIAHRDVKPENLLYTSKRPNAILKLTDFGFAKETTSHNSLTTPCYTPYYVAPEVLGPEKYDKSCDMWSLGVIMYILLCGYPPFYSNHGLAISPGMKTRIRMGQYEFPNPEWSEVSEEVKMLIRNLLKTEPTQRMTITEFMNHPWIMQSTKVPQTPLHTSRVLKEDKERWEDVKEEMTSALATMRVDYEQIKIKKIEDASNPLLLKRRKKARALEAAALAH
row,IC50,Compound
1,200 to 1000 nM,"CCOc1ccc(Nc2c(C)c(N[C@H]3CC[C@H](NCCCc4ccccc4)CC3)c(C#N)c3ccnn23)cc1 [Compound 116, 7-[(4-Ethoxyphenyl)amino]-6-methyl-5-({trans-4-[(3-phenylpropyl)amino]cyclohexyl}amino)pyrazolo[1,5-a]pyridine-4-carbonitrile trifluoroacetate salt]"
2,200 to 1000 nM,"N#Cc1c(N[C@H]2CCCNC2)cc(Nc2ccccc2Cl)n2nccc12 [Compound 93, 5-[(3S)-3-Piperidylamino]-7-(2-chlorophenylamino)pyrazolo[1,5-a]pyridine-4-carbonitrile trifluoroacetate salt]"
3,10000 to 100000 nM,"CCOc1ccc(Nc2c(C)c(NCCCCCCN)c(C#N)c3ccnn23)cc1 [Compound 132, 5-[(6-Amionohexyl)amino]-7-[(4-ethoxyphenyl)amino]-6-methylpyrazolo[1,5-a]pyridine-4-carbonitrile trifluoroacetate salt]"
4,< 200 nM,"COCCOc1ccc(Nc2c(C)c(N[C@H]3CCCNC3)c(C#N)c3ccnn23)cc1 [Compound 87, 5-[(3S)-3-Piperidylamino]-7-[4-(2-methoxyethoxy)phenylamino]-6-methylpyrazolo[1,5-a]pyridine-4-carbonitrile trifluoroacetate salt]"
5,< 200 nM,"COCCOc1ccc(Nc2c(C)c(N[C@H]3CC[C@H](N)CC3)c(C#N)c3ccnn23)cc1 [Compound 89, 5-(trans-4-Aminocyclohexylamino)-7-[4-(2-methoxyethoxy)phenylamino]-6-methylpyrazolo[1,5-a]pyridine-4-carbonitrile trifluoroacetate salt]"
6,1000 to 10000 nM,"CCOc1ccc(Nc2c(C)c(NCC3CCCNC3)c(C#N)c3ccnn23)cc1 (centres unmarked) [Compound 128, 7-[(4-Ethoxyphenyl)amino]-6-methyl-5-[(3-piperidylmethyl)amino]pyrazolo[1,5-a]pyridine-4-carbonitrile trifluoroacetate salt]"
7,200 to 1000 nM,"CCOc1ccc(Nc2c(C)c(N[C@H]3CC[C@H](NCCc4ccccc4)CC3)c(C#N)c3ccnn23)cc1 [Compound 125, 7-[(4-Ethoxyphenyl)amino]-6-methyl-5-(trans-{4-[(2-phenylethyl)amino]cyclohexyl}amino]pyrazolo[1,5-a]pyridine-4-carbonitrile trifluoroacetate salt]"
8,1000 to 10000 nM,"CCOc1ccc(Nc2c(C)c(NCC3CCCCN3)c(C#N)c3ccnn23)cc1 (centres unmarked) [Compound 119, 7-[(4-Ethoxyphenyl)amino]-6-methyl-5-[(2-piperidylmethyl)amino]pylrazolo[1,5-a]pyridine-4-carbonitrile trifluoroacetate salt]"
9,200 to 1000 nM,"Cc1nc2ccc(Nc3cc(N[C@H]4CC[C@H](N)CC4)c(C#N)c4ccnn34)cc2s1 [Compound 96, 5-(trans-4-Aminocyclohexylamino)-7-(2-methylbenzothiazol-6-ylamino)pyrazolo[1,5-a]pyridine-4-carbonitrile trifluoroacetate salt]"
10,< 200 nM,"Cc1c(N[C@H]2CCCNC2)c(C#N)c2ccnn2c1Nc1ccc2ncsc2c1 [Compound 117, 5-[((3S)-3-Piperidyl)amino]-7-(benzothiazol-6-ylamino)-6-methylpyrazolo[1,5-a]pyridine-4-carbonitrile trifluoroacetate salt]"
11,< 200 nM,"C=CCc1c(N[C@H]2CCCNC2)c(C#N)c2ccnn2c1Nc1ccc(OCC)cc1 [Compound 86, 5-[(3S)-3-Piperidylamino]-7-(4-ethoxyphenylamino)-6-(2-propenyl)pyrazolo[1,5-a]pyridine-4-carbonitrile trifluoroacetate salt]"
12,200 to 1000 nM,"CCOc1ccc(Nc2c(C)c(N[C@H]3CC[C@H](NCC4CCCCC4)CC3)c(C#N)c3ccnn23)cc1 [Compound 126, 5-({4-[(Cyclohexylmethyl)amino]cyclohexyl}amino)-7-[(4-ethoxyphenyl)amino]-6-methylpyrazolo[1,5-a]pyridine-4-carbonitrile trifluoroacetate salt]"
13,200 to 1000 nM,"CCOc1ccc(Nc2c(C3CC3)c(N[C@H]3CCCNC3)c(C#N)c3ccnn23)cc1 [Compound 130, 5-[(3S)-3-Piperidylamino]-7-(4-ethoxyphenylamino)-6-cyclopropylpyrazolo[1,5-a]pyridine-4-carbonitrile]"
14,< 200 nM,"N#Cc1c(N[C@H]2CC[C@H](N)CC2)cc(Nc2ccc(-c3ccccc3)cc2)n2nccc12 [Compound 97, 5-(trans-4-Aminocyclohexylamino)-7-(4-biphenylylamino)pyrazolo[1,5-a]pyridine-4-carbonitrile trifluoroacetate salt]"
15,< 200 nM,"CCCc1c(N[C@H]2CC[C@H](N)CC2)c(C#N)c2ccnn2c1Nc1ccc(OCC)cc1 [Compound 122, 5-(trans-4-Aminocyclohexylamino)-7-(4-ethoxyphenylamino)-6-propylpyrazolo[1,5-a]pyridine-4-carbonitrile]"
16,200 to 1000 nM,"CCOc1ccc(Nc2c(C)c(NCCCN)c(C#N)c3ccnn23)cc1 [Compound 107, 5-[(3-Aminopropyl)amino]-7-[(4-ethoxyphenyl)amino]-6-methylpyrazolo[1,5-a]pyridine-4-carbonitrile trifluoroacetate salt]"
17,10000 to 100000 nM,"CCOc1ccc(Nc2c(C)c(NCCC3CCCCN3)c(C#N)c3ccnn23)cc1 (centres unmarked) [Compound 113, 7-[(4-Ethoxyphenyl)amino]-6-methyl-5-[(2-(2-piperidyl)ethyl)amino]pyrazolo[1,5-a]pyridine-4-carbonitrile trifluoroacetate salt]"
18,< 200 nM,"CCOc1ccc(Nc2c(C(C)C)c(N[C@H]3CC[C@H](N)CC3)c(C#N)c3ccnn23)cc1 [Compound 124, 5-(trans-4-Aminocyclohexylamino)-7-(4-ethoxyphenylamino)-6-(methylethyl)pyrazolo[1,5-a]pyridine-4-carbonitrile]"
19,10000 to 100000 nM,"CCOc1ccc(Nc2c(C)c(N[C@H]3CCCC[C@@H]3N)c(C#N)c3ccnn23)cc1 (relative stereo) [Compound 101, 5-[(trans-2-Aminocyclohexyl)amino]-7-(4-ethoxyphenylamino)-6-methylpyrazolo[1,5-a]pyridine-4-carbonitrile trifluoroacetate salt]"
20,1000 to 10000 nM,"CCOc1ccc(Nc2c(C)c(NC3CCCC(N)C3)c(C#N)c3ccnn23)cc1 (centres unmarked) [Compound 104, 5-[(3-Aminocyclohexyl)amino]-7-[(4-ethoxyphenyl)amino]-6-methylpyrazolo[1,5-a]pyridine-4-carbonitrile trifluoroacetate salt]"
21,< 200 nM,"CCOc1ccc(Nc2c(C(C)C)c(N[C@H]3CCCNC3)c(C#N)c3ccnn23)cc1 [Compound 123, 5-[(3S)-3-Piperidylamino]-7-(4-ethoxyphenylamino)-6-(methylethyl)pyrazolo[1,5-a]pyridine-4-carbonitrile]"
22,200 to 1000 nM,"CCOc1ccc(Nc2c(C)c(NCCCCN)c(C#N)c3ccnn23)cc1 [Compound 108, 5-[(4-Aminobutyl)amino]-7-[(4-ethoxyphenyl)amino]-6-methylpyrazolo[1,5-a]pyridine-4-carbonitrile trifluoroacetate salt]"
23,1000 to 10000 nM,"CCOc1ccc(Nc2c(C)c(NCCCNC3CCCCC3)c(C#N)c3ccnn23)cc1 [Compound 120, 5-{[3-(Cyclohexylamino)propyl]amino}-7-[(4-ethoxyphenyl)amino]-6-methylpyrazolo[1,5-a]pyridine-4-carbonitrile trifluoroacetate salt]"
